Measured values from patent US20250026748A1, “N-(5-SUBSTITUTED-[(1,3,4-THIADIAZOLYL) OR (THIAZOLYL)])(SUBSTITUTED)CARBOXAMIDE COMPOUNDS AND USE THEREOF FOR INHIBITING HUMAN POLYMERASE THETA” (Repare Therapeutics Inc., priority 2021, published 2025).

Each molecule was assayed against PolQ ATPase enzyme (1-894) (Homo sapiens (Human), UniProt O75417) (assay: Polθ ATPase enzymatic assay (0.5 nM enzyme concentration), ADP-Glo). Conditions: average IC50; 0.5 nM PolQ ATPase enzyme (1-894).
Type: biochemical
Method in brief: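 Enzyme (0.5 nM) pre-incubated 15 min at rt with 10-point inhibitor series in 50 mM Tris pH 7.5, 10% glycerol, 5 mM DTT, 10 mM MgCl2, 0.1 mg/ml BSA; reaction started with 20 nM fork DNA and 100 μM ATP, run 180 min at rt. ADP-Glo luminescence; IC50 from 4-parameter variable-slope fit.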

PolQ ATPase enzyme (1-894), sequence (O75417 1-894): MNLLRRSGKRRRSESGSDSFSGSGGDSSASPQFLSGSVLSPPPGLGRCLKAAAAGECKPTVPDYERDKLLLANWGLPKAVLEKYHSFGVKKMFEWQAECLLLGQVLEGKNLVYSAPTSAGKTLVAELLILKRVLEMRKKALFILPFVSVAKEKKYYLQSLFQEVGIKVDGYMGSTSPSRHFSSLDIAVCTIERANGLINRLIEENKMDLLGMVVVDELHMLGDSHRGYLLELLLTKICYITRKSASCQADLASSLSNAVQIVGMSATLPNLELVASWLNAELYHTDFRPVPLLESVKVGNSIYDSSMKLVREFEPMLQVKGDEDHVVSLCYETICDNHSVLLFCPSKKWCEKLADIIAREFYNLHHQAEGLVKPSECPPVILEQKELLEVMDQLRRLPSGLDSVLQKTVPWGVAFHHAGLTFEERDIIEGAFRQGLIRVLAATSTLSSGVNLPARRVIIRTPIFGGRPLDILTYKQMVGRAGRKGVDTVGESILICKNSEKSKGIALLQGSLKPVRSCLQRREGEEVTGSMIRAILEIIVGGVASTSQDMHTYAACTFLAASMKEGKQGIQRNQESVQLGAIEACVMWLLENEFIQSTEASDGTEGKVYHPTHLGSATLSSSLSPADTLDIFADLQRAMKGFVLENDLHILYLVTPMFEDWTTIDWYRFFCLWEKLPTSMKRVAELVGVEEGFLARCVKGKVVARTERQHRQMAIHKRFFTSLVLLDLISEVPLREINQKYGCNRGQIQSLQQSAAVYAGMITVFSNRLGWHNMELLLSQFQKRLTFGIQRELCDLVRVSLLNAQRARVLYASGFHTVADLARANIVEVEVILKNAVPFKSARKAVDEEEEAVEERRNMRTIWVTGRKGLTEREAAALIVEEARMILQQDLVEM

First: COc1ccc(C(F)(F)F)cc1-c1cn(C)c(=O)cc1C(=O)Nc1nnc(C#CC2CCCOC2)s1 (centres unmarked) [Compound 336]
Second: COc1ccc(C(F)(F)F)cc1-c1cc(C#CC2CCCOC2)ncc1C(=O)Nc1nnc(C#CC2CC2)s1 (centres unmarked) [Compound 249]
The IC50 of the first is 43-fold higher: 33 nM for the first, 0.77 nM for the second.

Going from COc1cnc(C(F)F)cc1-c1cc(-c2nnc(C)o2)ccc1C(=O)Nc1nc(C)c(C#CC2CC2)s1 [Compound 164] to COc1cnc(C(F)F)cc1-c1cc(-c2ccn(C)n2)ncc1C(=O)Nc1nc(C)c(C#CC2CC2)s1 [Compound 157], the IC50 falls from 289 nM to 115 nM (2.5-fold).

First: COc1ccc(C(F)(F)F)cc1-c1cn2ncnc2cc1C(=O)Nc1nnc(C#CC2CC2)s1 [Compound 345]
Second: COc1ccc(C(F)(F)F)cc1-c1cc(-c2cnn(C)c2)ncc1C(=O)Nc1nnc(C#CC2CC2)s1 [Compound 296]
The IC50 of the first is 2.3-fold higher: 3.7 nM for the first, 1.6 nM for the second.

Compared with COc1cnc(C(F)F)cc1-c1cc(C[S+](C)[O-])ccc1C(=O)Nc1nnc(C#CC2CC2)s1 (centres unmarked) [Compound 260], COc1cnc(C(F)F)cc1-c1cc(CC#N)ccc1C(=O)Nc1nnc(C#CC2CC2)s1 [Compound 112, 4-(cyanomethyl)-N-(5-(cyclopropylethynyl)-1,3,4-thiadiazol-2-yl)-2-(2-(difluoromethyl)-5-methoxypyridin-4-yl)benzamide] is lower in IC50: 2 nM for the first, less than 0.25 nM for the second.

Compared with COc1cnc(Cl)nc1-c1cnccc1C(=O)Nc1nnc(C#CC2CC2)s1 [Compound 68], COc1ncc(Cl)cc1-c1cnccc1C(=O)Nc1nnc(C#CC2CC2)s1 [Compound 344] is 2.7-fold higher in IC50: 1.6 nM for the first, 4.3 nM for the second.

COc1cnc(C(F)F)cc1-c1cc(N2CCCCCC2=O)ncc1C(=O)Nc1nnc(C#CC2CC2)s1 [Compound 394] and COc1cnc(C(F)F)cc1-c1cc(N2CCCC(C)C2=O)ncc1C(=O)Nc1nnc(C#CC2CC2)s1 (centres unmarked) [Compound 390] cannot be ordered by IC50: less than 0.25 nM for the first, less than 0.25 nM for the second.

First: COc1cnc(Cl)cc1-c1cnccc1C(=O)Nc1nnc(C#CC2CC23CC3)s1 (centres unmarked) [Compound 100]
Second: Cc1cnc(Cl)cc1-c1cnccc1C(=O)Nc1nnc(C#CC2CC2)s1 [Compound 299]
The IC50 of the first is lower: less than 0.25 nM for the first, 0.6 nM for the second.

Going from COc1cnc(Cl)cc1-c1cc(N2CCCS2(=O)=O)ccc1C(=O)Nc1nnc(C#CC2CC2)s1 [Compound 311] to COc1cnc(Cl)cc1-c1cc(-c2cn[nH]c2)ccc1C(=O)Nc1nnc(C#CC2CC2)s1 [Compound 312], the IC50 falls from 8.1 nM to 0.94 nM (8.6-fold). The second is the more potent here.

Going from COc1ccc(C(F)(F)F)cc1-c1cnccc1C(=O)Nc1nnc(C#CC2CC2(C)C)s1 (centres unmarked) [Compound 306] to COc1cnc(CF)cc1-c1cnccc1C(=O)Nc1nnc(C#CC2CC2)s1 [Compound 71], the IC50 rises from 0.56 nM to 1.8 nM (3.2-fold).

Going from COc1cnc(C(F)F)cc1-c1cc(-c2cc(C#N)n(C)n2)ncc1C(=O)Nc1nnc(C#CC2CC2)s1 [Compound 371] to COc1cnc(C(F)F)cc1-c1cc(-c2ccn(C(F)F)n2)ncc1C(=O)Nc1nnc(C#CC2CC2)s1 [Compound 350], the IC50 falls from 8.1 nM to less than 0.25 nM.

Compared with COc1cnc(C(F)F)cc1-c1cc(N2CCN(C)C3(CC3)C2=O)ncc1C(=O)Nc1ncc(C#CC2CC2)s1 [Compound 465], COc1cnc(C(F)F)cc1-c1cc(N2CCO[C@H](C)C2=O)ncc1C(=O)Nc1nnc(C#CC2CC2)s1 [Compound 173] is 1.5-fold higher in IC50: 0.27 nM for the first, 0.41 nM for the second.

Going from COc1cnc(Cl)cc1-c1cn2c(C(N)=O)cnc2cc1C(=O)Nc1nnc(C#CC2CC2)s1 [Compound 342] to COc1cnc(Cl)cc1-c1cn(C)c(=O)cc1C(=O)Nc1nnc(C#CC2CC2)s1 [Compound 32, 2′-chloro-N-(5-(cyclopropylethynyl)-1,3,4-thiadiazol-2-yl)-5′-methoxy-1-methyl-6-oxo-1,6-dihydro-[3,4′-bipyridine]-4-carboxamide], the IC50 falls from 13 nM to 0.66 nM (20-fold).

COc1cnc(C(F)F)cc1-c1cc(-c2cn(C)c(C)n2)ccc1C(=O)Nc1nnc(C#CC2CC2)s1 [Compound 412] and COc1cnc(C(F)F)cc1-c1cc(-c2ccc(=O)n(C)c2)ccc1C(=O)Nc1nnc(C#CC2CC2)s1 [Compound 202] are within 1.5-fold of each other in IC50: 0.25 nM for the first, 0.29 nM for the second.

First: COc1cnc(C(F)F)cc1-c1cc(Nc2ccn(C)n2)ccc1C(=O)Nc1nnc(C#CC2CC2)s1 [Compound 166]
Second: COc1cnc(C(F)F)cc1-c1cc(C2CCN(C)C2=O)ccc1C(=O)Nc1nnc(C#CC2CC2)s1 (centres unmarked) [Compound 282]
The IC50 of the first is 2-fold higher: 0.52 nM for the first, 0.26 nM for the second. The second is the more potent here.

Going from COc1cnc(C(F)F)cc1-c1cc(N2C(=O)CCC2=O)ccc1C(=O)Nc1nnc(C#CC2CC2)s1 [Compound 216] to COc1cnc(C(F)F)cc1-c1cc(N2CCN(C(C)=O)CC2=O)ccc1C(=O)Nc1nnc(C#CC2CC2)s1 [Compound 137], the IC50 falls from 1.5 nM to 0.26 nM (5.8-fold).

COc1ccc(C(F)F)cc1-c1cn(C)c(=O)cc1C(=O)Nc1nnc(C#CC2CC23CC3)s1 (centres unmarked) [Compound 42] and COc1cnc(C(F)F)cc1-c1cn2ncnc2cc1C(=O)Nc1nnc(C#CC2CC23CC3)s1 (centres unmarked) [Compound 48] are within 1.5-fold of each other in IC50: 1.8 nM for the first, 2.5 nM for the second.

First: Cc1ccc(Cl)cc1-c1cnccc1C(=O)Nc1nnc(C#CC2CC2)s1 [Compound 43]
Second: COc1cnc(Cl)cc1-c1cc(C#N)ncc1C(=O)Nc1nnc(C#CC2CC2)s1 [Compound 72]
The IC50 of the first is lower: less than 0.25 nM for the first, 0.62 nM for the second. The first is the more potent here.

Going from O=C(Nc1nnc(C#CC2CC2)s1)c1cc2ncnn2cc1-c1cc(Cl)ncc1OC(F)F [Compound 50] to O=C(Nc1nnc(C#CC2CC23CC3)s1)c1cc2ncnn2cc1-c1cc(Cl)ncc1OC(F)F (centres unmarked) [Compound 47], the IC50 falls from 2.4 nM to 0.62 nM (3.9-fold).

Going from O=C(Nc1ncc(C#CC2CC2)s1)c1cc(=O)n(Cc2ncco2)cc1-c1cc(C(F)F)ccc1Cl [Compound 207] to CN(C)C(=O)Cn1cc(-c2cc(C(F)F)ccc2Cl)c(C(=O)Nc2nnc(C#CC3CC3)s2)cc1=O [Compound 317], the IC50 falls from 2.6 nM to less than 0.25 nM.

Compared with COc1cnc(C(F)F)cc1-c1cc(C#CC2CCOCC2)ncc1C(=O)Nc1nnc(C#CC2CC2)s1 [Compound 268, N-(5-(cyclopropylethynyl)-1,3,4-thiadiazol-2-yl)-2′-(difluoromethyl)-5′-methoxy-6-((tetrahydro-2H-pyran-4-yl)ethynyl)-[4,4′-bipyridine]-3-carboxamide], COc1cnc(C(F)F)cc1-c1cc(N2CCOCC2)ncc1C(=O)Nc1nnc(C#CC2CC2)s1 [Compound 235] is 68-fold higher in IC50: 0.28 nM for the first, 19 nM for the second. The first is the more potent here.

First: COc1cnc(Cl)cc1-c1cc(C#CC2(O)COC2)ccc1C(=O)Nc1nnc(C#CC2CC2)s1 [Compound 54]
Second: COc1cnc(C(F)F)cc1-c1cc(Cl)ncc1C(=O)Nc1nnc(C#CC2CC2)s1 [Compound 291]
The IC50 of the first is lower: less than 0.25 nM for the first, 0.35 nM for the second.

Compared with COc1ccc(C(F)(F)F)cc1-c1cc(N2CCCC2=O)ncc1C(=O)Nc1nnc(C#CC2CC2)s1 [Compound 290], COc1ccc(C(F)(F)F)cc1-c1cc(C2CCN(C)C2=O)ncc1C(=O)Nc1nnc(C#CC2CC2)s1 (centres unmarked) [Compound 297] is 11-fold lower in IC50: 7.3 nM for the first, 0.69 nM for the second.

Compared with COc1cnc(C(F)F)cc1-c1cc(CC(=O)N2CCOCC2)ccc1C(=O)Nc1nnc(C#CC2CC2)s1 [Compound 228], COc1cnc(C(F)F)cc1-c1cc(N2CCOC[C@H]2C)ncc1C(=O)Nc1nnc(C#CC2CC2)s1 [Compound 379] is higher in IC50: less than 0.25 nM for the first, 18 nM for the second. The first is the more potent here.

COc1cnc(C(F)F)cc1-c1cc(-n2cc(F)ccc2=O)ncc1C(=O)Nc1nnc(C#CC2CC2)s1 [Compound 413] and COc1cnc(C(F)F)cc1-c1cc(-n2cccc(F)c2=O)ncc1C(=O)Nc1nnc(C#CC2CC2)s1 [Compound 449] cannot be ordered by IC50: less than 0.25 nM for the first, less than 0.25 nM for the second.

COc1cnc(C(F)F)cc1-c1cc(N2CCC3CC3C2=O)ncc1C(=O)Nc1nnc(C#CC2CC2)s1 (centres unmarked) [Compound 142] and COc1cnc(C(F)F)cc1-c1cc(N2CCC3CCC3C2=O)ncc1C(=O)Nc1nnc(C#CC2CC2)s1 (centres unmarked) [Compound 443] cannot be ordered by IC50: less than 0.25 nM for the first, less than 0.25 nM for the second.

COc1cnc(C(F)F)cc1-c1cc(-n2ncccc2=O)ncc1C(=O)Nc1nnc(C#CC2CC2)s1 [Compound 421] and COc1cnc(C(F)F)cc1-c1cc(-n2cccc(OC)c2=O)ncc1C(=O)Nc1nnc(C#CC2CC2)s1 [Compound 438] cannot be ordered by IC50: less than 0.25 nM for the first, less than 0.25 nM for the second.

Going from COc1cnc(C(F)F)cc1-c1cc(OC2CCN(C)C2=O)ncc1C(=O)Nc1nnc(C#CC2CC2)s1 (centres unmarked) [Compound 182] to COc1cnc(C(F)F)cc1-c1cc(N2CC3(C2)CC(C)(O)C3)ncc1C(=O)Nc1nnc(C#CC2CC2)s1 [Compound 130, N-(5-(cyclopropylethynyl)-1,3,4-thiadiazol-2-yl)-2′-(difluoromethyl)-6-(6-hydroxy-6-methyl-2-azaspiro[3.3]heptan-2-yl)-5′-methoxy-[4 4′-bipyridine]-3-carboxamide], the IC50 rises from 1.2 nM to 2.1 nM (1.8-fold).

C#C[C@@H]1CC1c1nnc(NC(=O)c2ccncc2-c2cc(C(F)F)ncc2OC)s1 (some centres unmarked) [Compound 323] and COc1cnc(C(F)F)cc1-c1cnccc1C(=O)Nc1nnc(C2C[C@H]2c2ccc(C#N)nc2)s1 (some centres unmarked) [Compound 266] are within 1.5-fold of each other in IC50: 4.5 nM for the first, 4.4 nM for the second.

First: COc1cnc(C(F)F)cc1-c1cc(C#CCN2CCNC2=O)ccc1C(=O)Nc1nnc(C#CC2CC2)s1 [Compound 197]
Second: COc1cnc(C(F)F)cc1-c1cc(C2C[C@@H]2C(=O)N(C)C)ccc1C(=O)Nc1nnc(C#CC2CC2)s1 (some centres unmarked) [Compound 362]
The IC50 of the first is lower: less than 0.25 nM for the first, 1.4 nM for the second. The first is the more potent here.

Compared with COc1cnc(C(F)F)cc1-c1cc(CC(=O)N(C)C)ncc1C(=O)Nc1nc(C)c(C#CC2CC2)s1 [Compound 179], COc1cnc(C(F)F)cc1-c1cc(NCCOCC(=O)O)ncc1C(=O)Nc1nnc(C#CC2CC2)s1 [Compound 159] is 2-fold lower in IC50: 1.6 nM for the first, 0.79 nM for the second.

Compared with C#C[C@H]1CC1c1nnc(NC(=O)c2cnc(-n3ccc(C)cc3=O)cc2-c2cc(C(F)F)ncc2OC)s1 (some centres unmarked) [Compound 431], C#CC1CC1c1nnc(NC(=O)c2ccc(N3CCOCC3=O)cc2-c2cc(C(F)F)ncc2OC)s1 (centres unmarked) [Compound 396] is higher in IC50: less than 0.25 nM for the first, 10 nM for the second. The first is the more potent here.

Going from COc1ccc(C(F)F)cc1-c1cn2cc(C(=O)N(C)C)nc2cc1C(=O)Nc1nnc(C#CC2CC2)s1 [Compound 324] to NC(=O)Cn1cc(-c2cc(Cl)ncc2OC(F)F)c(C(=O)Nc2nnc(C#CC3CC3)s2)cc1=O [Compound 76], the IC50 falls from 0.4 nM to less than 0.25 nM.

COc1ccc(C(F)(F)F)cc1-c1cn(CC(N)=O)c(=O)cc1C(=O)Nc1nnc(C#Cc2cc(C)[nH]n2)s1 [Compound 94] was tested, and the IC50 was less than 0.25 nM.
